Results: patent US5128359A, “Benzimidazole and azabenzimidazole derivatives which are thromboxane receptor antagonists, their methods of preparation” (Laboratoires UPSA, priority 1990, dated 1992)

Biological target: T1, TXA2 receptors of human platelets (Homo sapiens, UniProt P21731)
T1 construct: Human platelets incubate in the presence of a single concentration; endogenous in cells; host or cells: human platelets
T1 sequence (P21731 1-343): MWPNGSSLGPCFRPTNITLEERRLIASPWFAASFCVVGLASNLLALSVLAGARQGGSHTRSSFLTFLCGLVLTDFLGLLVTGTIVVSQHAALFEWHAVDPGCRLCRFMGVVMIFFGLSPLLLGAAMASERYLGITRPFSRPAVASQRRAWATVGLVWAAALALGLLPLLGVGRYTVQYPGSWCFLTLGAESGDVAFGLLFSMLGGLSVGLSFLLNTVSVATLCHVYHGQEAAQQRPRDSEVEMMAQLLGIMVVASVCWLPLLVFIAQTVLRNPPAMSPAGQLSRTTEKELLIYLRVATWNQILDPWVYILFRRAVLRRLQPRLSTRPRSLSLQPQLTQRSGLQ
Test: displacement of radioligand [^125 I]PTA-OH specifically bound to the TXA2 receptors of human platelets
Assay type: binding
Details: for inhibition at 10 µM / inhibition at 0.1 µM: 0.5 h, 30 minutes at 37° C; for inhibition at 10 µM: 1E-5 M competing agent, read-out: % displacement, Concentration 1E-5 M; for inhibition at 0.1 µM: 1E-7 M competing agent, read-out: % displacement, Concentration 1E-7 M; for Ki: determined according to the formula of CHENG and PRUSOFF, read-out: Ki (inhibition constant)
Description: The affinity of the products of the Examples described for thromboxane A2 receptors is evaluated by the technique of displacing a radioligand specifically bound to the TXA2 receptors of human platelets. […] The reaction is completed by the addition of a buffer, followed by rapid filtration through […] filters. […] The results are expressed, for the doses tested, as the percentage displacement of the radioligand specifically bound to the TXA2 receptors of human platelets.

Row | inhibition at 10 µM [%] | inhibition at 0.1 µM [%] | Ki [nM] | Compound
1 | 95 | 74 |  | CC(C)(CC(=O)O)Cc1nc2cc(Cl)ccc2n1Cc1ccc(Br)cc1F [Example 135, 4-[1-(2-Fluoro-4-bromobenzyl)-5-chlorobenzimidazol-2-yl]3,3-dimethylbutanoic acid]
2 | 92 | 71 |  | CC(C)(CC(=O)O)Cc1nc2cc(Cl)ccc2n1Cc1ccc(Cl)c(Cl)c1 [Example 101, 4-[1-(3,4-Dichlorobenzyl)-5-chlorobenzimidazol-2-yl]-3,3-dimethylbutanoic acid]
3 | 100 | 57 |  | CCC(C)(CC(=O)O)Cc1nc2ccccc2n1Cc1ccc(Cl)cc1 (stereo not drawn) [Example 75, 4-[1-(4-Chlorobenzyl)benzimidazol-2-yl]-3-methyl-3-ethylbutanoic acid]
4 | 92 | 95 |  | CC(C)(CC(=O)O)Cc1nc2cc(F)ccc2n1Cc1ccc(Br)cc1 [Example 109, 4-[1-(4-Bromobenzyl)-5-fluorobenzimidazol-2-yl]-3,3-dimethylbutanoic acid]
5 | 87 | 56 |  | CC(C)(CCC(=O)O)Cc1nc2cc(F)ccc2n1Cc1ccc(Cl)cc1 [Example 158, 5-[1-(4-Chlorobenzyl)-5-fluorobenzimidazol-2-yl]-4,4-dimethylpentanoic acid]
6 | 100 | 71 | 42.3 | O=C(O)CC1(Cc2nc3cc(F)ccc3n2Cc2ccc(Cl)cc2)CCCC1 [Example 72, [10[1-(4-Chlorobenzyl)-5-fluorobenzimidazol-2-yl]-methylcyclopent-1 yl]acetic acid]
7 | 100 | 100 | 5 | CSc1ccc(Cn2c(CC(C)(C)CC(=O)O)nc3cc(F)ccc32)cc1 [Example 96, 4-[1-(4-Methylthiobenzyl)-5-fluorobenzimidazol-2-yl]-3,3-dimethylbutanoic acid]
8 | 89 | 87 | 5.8 | CSc1ccc(Cn2c(CC(C)(C)CC(=O)O)nc3cc(Cl)ccc32)cc1 [Example 117, 4-[1-(4-Methylthiobenzyl)-5-chlorobenzimidazol-2-yl]-3,3-dimethylbutanoic acid]

The remaining lines, values behind:

Row | Compound | inhibition at 10 µM [%] | inhibition at 0.1 µM [%] | Ki [nM]
9 | O=C(O)CCCCSc1nc2cc(F)ccc2n1Cc1ccc(Cl)cc1 [Example 59, 5-[1-(4-Chlorobenzyl)-5-fluorobenzimidazol-2-yl]mercaptopentanoic acid] | 100 | 28 | 
10 | COc1ccc(Cn2c(CC(C)(C)CC(=O)O)nc3ccccc32)cc1 [Example 68, 4-[1-(4-Methoxybenzyl)benzimidazol-2-yl]-3,3-dimethybutanoic acid] | 100 | 89 | 31
11 | O=C(O)CCCSc1nc2ccccc2n1Cc1ccc(Cl)cc1Cl [Example 64, 4-[1 (2,4-Dichlorobenzyl)benzimidazol-2-yl]mercaptobutanoic acid] | 97 | 34 | 
12 | O=C(O)CCCSc1nc2ccccc2n1Cc1ccc(Cl)cc1 [Example 63, 4-[1-(4-Chlorobenzyl)benzimidazol-2-yl]mercaptobutanoic acid] | 97 | 37 | 
13 | O=C(O)CCCSc1nc2cc(F)ccc2n1Cc1ccc(Cl)cc1 [Example 65, 4-[1-(4-Chlorobenzyl)-5 fluorobenzimidazol-2-yl]mercaptobutanoic acid] | 93 | 8 | 
